Experimental data from patent US10071042B2, “External dermatological agent for anti-ageing” (Hayashibara Co., Ltd., priority 2014, dated 2018).
Marks after values point to notes of the source that are not given here.

How the values were obtained:
elastin = experiment: Elastin production of normal human dermal fibroblasts, colorimetric kit (Experiment 4); assay type: cell-based; conditions: 2 days, control = 100%
Protocol: Normal human dermal fibroblasts (NHDF), which had been suspended in a Dulbecco's Modified Eagle Medium supplemented with 10% fetal calf serum to give a cell concentration of 3×10^5 cells/mL, were placed in 24-well plates by 0.5 mL/well and cultured for one day. The cultured cells were washed with Dulbecco's phosphate buffered saline and cultured for another two days in a Dulbecco's Modified Eagle Medium, supplemented with any one of the test substances in Table 5 at respective concentrations shown in the table, to induce elastin synthesis. Thereafter, each culture supernatant was collected, and the remaining cells were washed with one milliliter of Dulbecco's phosphate buffered saline, added with 0.1 mL of 0.25% trypsin and ethylenediaminetetraacetate, followed by incubation at 37° C. for two minutes to detach the cells from the plates. A half milliliter of Dulbecco's phosphate buffered saline was added to each plate, and the resulting cell suspensions were collected in a 1.5-mL tube which was then subjected to centrifugation (3,000×g for five minutes) to collect the cells. Elastin was quantified with a colorimetric determination kit commercialized by Biocolor Ltd., […]. The previously collected supernatant was used to suspend the collected cells, to which was then added 0.16 mL of 1 M oxalic acid, a reagent affixed to the kit, and incubated at 100° C. for one hour to solubilize elastin. To the solubilized elastin placed in a container was added 0.66 mL of an elastin precipitant as a reagent affixed to the kit, mixed for 15 min while repeatedly reversing the container, and centrifuged at 10,000×g for 10 min to precipitate proteins. A half milliliter of a dye, as a reagent affixed to the kit, was added to the resulting precipitate, followed by repeatedly reversing the container for 90 min and centrifuged at 10,000×g for 10 min to collect sediments bound with the dye. Thereafter, the collected sediments were added with 0.25 mL of a dye separator as a reagent affixed to the kit, and mixed for one hour while repeatedly reversing a container with the resulting mixture, followed by determining the absorbance of the resulting mixture at a wavelength of 490 nm and calculating the amount of elastin per well. A calibration curve was generated with an accessory for the kit. A control system was provided by similarly treating normal human dermal fibroblasts (NHDF) without adding any test substance and determined for its absorbance at a wavelength of 490 nm. Regarding the absorbance as 100%, the production level of elastin of each test substance was comparatively evaluated based on the following equation. Equation: Production level of elastin (relative value (%))=[(Absorbance of a sample with any one of test substances)/(Absorbance of control)]×100
The experiment was repeated three times, and the data was compared to that of control with the Dunnett's multiple comparisons test. The symbol “*” means a level of significance of p<0.01.

filaggrin protein = experiment: Expression of filaggrin protein, Western blot filaggrin/actin (Experiment 3); assay type: cell-based, human; conditions: control = 100%
Protocol: Then, the expression of filaggrin was induced in such a manner of further culturing the cells for another four days, while replacing the culture medium with an EpiLife medium supplemented with 2 μM, 5 μM, or 10 μM of sodium adenosine N1-oxide 5′-phosphate every three days. […] After four days culture, the resultant cells were washed with Dulbecco's phosphate buffered saline, added with 0.1 mL of an SDS sample buffer (pH 6.8) containing 62.5 mM Tris-HCl, 2% SDS, 10% glycerol, and 50 mM DTT along with a protease inhibitor, and collected with a cell scraper. The collected cells were boiled for 10 min, disrupted ultrasonically, and quantified with “Pierce BCA Protein Assay Kit”, commercialized by ThermoFisher Scientific K. K., Yokohama, Japan. A prescribed amount of the resulting disrupted cells was sampled and subjected to SDS-polyacrylamide gel electrophoresis in an amount of 100 μg/lane, and the resulting gel was transferred to a PVDF membrane. The resulting transferred PVDF membrane was blocked with “Block Ace”, commercialized by DS Pharma Biomedical Co., Ltd., Osaka, Japan, reacted with a 200-fold dilution of “AKH1”, a mouse anti-filaggrin antibody, commercialized by, Santa Cruz Biotechnology Inc., CA, USA, or a 20,000-fold dilution of “MAB1501”, a mouse actin antibody, commercialized by Chemicon International Inc., MA, USA, as a first antibody, and then reacted with a 2,000-fold dilution of “P0447”, an HRP-labeled anti-mouse immunoglobulin, commercialized by Dako Japan, Tokyo, Japan, as a secondary antibody. After the reaction, by using ECL Plus Western Blotting Detection System, commercialized by GE Healthcare Japan, Tokyo, Japan, bands were detected on “Hyperfilm ECL”, a chemiluminescent film commercialized by GE Healthcare Japan, Tokyo, Japan. The detected bands were analyzed and quantified with “Image J”, an image analyzing software. A control system with no addition of any of the test substances was provided and the increasing intensity ratio of a band of filaggrin/actin was regarded as 100%, with which data for the increased percentages of the intensity ratios of bands of filaggrin/actin of the test substances were comparatively evaluated.

endothelin-1 = experiment: Endothelin-1 production after ultraviolet B irradiation, ELISA (Experiment 6); assay type: cell-based, human; conditions: for Production level of endothelin-1 (%): ultraviolet B 40 mJ/cm^2, control = 100%
Protocol: Normal human epidermal keratinocytes were proliferated to a confluent state at which the cells were grown over the entire bottom edge of each well of 96-well microplates by using “EpiLife”, a product name of a culture medium containing a growth factor for keratinocytes, commercialized by Life Technologies Corporation, CA, USA, and further cultured for another two days while replacing the medium with a fresh culture medium free of such a growth factor. Thereafter, the resulting cultures were added with sodium adenosine N1-oxide 5′-phosphate to give a concentration of 10, 20, or 50 μM, and allowed to stand for six hours. The cultured cells were washed with Hanks buffer, irradiated with ultraviolet B radiation at an intensity of 40 mJ/cm^2, and further cultured for 24 hours after the addition of a culture medium containing the growth factor. Endothelin-1 in the resulting supernatants was detected with an endothelin-1 specific ELISA kit, commercialized by R&D Systems Inc., MN, USA, colored with tetramethylbenzidine, and measured for absorbance at a wavelength of 450 nm. A control system was provided and similarly treated as above except for not adding sodium adenosine N1-oxide 5′-phosphate and then determined for the production level of endothelin-1 in the resulting culture supernatant to be regarded as 100%. The production level of endothelin-1 for each test substance was comparatively evaluated based on the following equation. Equation: Production level of endothelin-1 (relative value (%))=[(Absorbance of a sample with a test substance)/(Absorbance of control)]×100 The experiment was repeated three times, and the data was compared to that of control with the Dunnett's multiple comparisons test. The symbol “*” means a level of significance of p<0.01.

[1] = tested on: normal human epidermal keratinocytes; experiment: Number of cells, methylene blue (Experiment 6); assay type: cell-based; conditions: for Number of cells (%): control = 100%
Protocol: The number of proliferated cells was determined with methylene blue and regarded as 100% for use in calculating the variation of cells with any one of the test substances.

Row | SMILES | Production level of elastin (%) (elastin; 10 μM) | Production level of elastin (%) (elastin; 40 μM) | Production level of elastin (%) (elastin; 100 μM) | Production level of elastin (%) (elastin; 1 μM) | Production level of elastin (%) (elastin; 4 μM) | Production level of elastin (%) (elastin; 10 μM, listed as adenosine N1-oxide) | Relative expression level of filaggrin protein (%) (filaggrin protein; 2 μM) | Relative expression level of filaggrin protein (%) (filaggrin protein; 5 μM) | Relative expression level of filaggrin protein (%) (filaggrin protein; 10 μM) | Production level of elastin (%) (elastin; 10 μM, listed as sodium adenosine N1-oxide 5′-phosphate) | Production level of endothelin-1 (%) (endothelin-1; 10 μM) | Production level of endothelin-1 (%) (endothelin-1; 20 μM) | production level of endothelin-1 reduced by (endothelin-1; 50 μM, compared to control) | Production level of endothelin-1 (%) (endothelin-1; 50 μM) | Number of cells (%) ([1]; 10 μM) | Number of cells (%) ([1]; 20 μM) | Number of cells (%) ([1]; 50 μM) | influence on cell proliferation ([1]; 10 to 50 μM)
1 | Nc1ncnc2c1ncn2[C@@H]1O[C@H](COP(=O)(O)O)[C@@H](O)[C@H]1O [Adenosine 5′-phosphate, reference compound] | 114.4% | 117.2% | 120.0* % |  |  |  |  |  |  |  |  |  |  |  |  |  |  | 
2 | Nc1c2ncn([C@@H]3O[C@H](CO)[C@@H](O)[C@H]3O)c2nc[n+]1[O-] [Adenosine N1-oxide, adenosine N1-oxide] | 118.4* % |  |  | 108.8% | 114.8% | about 120% |  |  |  |  |  |  |  |  |  |  |  | 
3 | Nc1c2ncn([C@@H]3O[C@H](COP(=O)([O-])O)[C@@H](O)[C@H]3O)c2nc[n+]1[O-].[Na+] [Sodium adenosine N1-oxide 5′-phosphate, sodium adenosine N1-oxide 5′-phosphate] | 121.2* % |  |  | 98.0% | 105.2% |  | 133% | 206% | 308% | about 120% | 104.5% | 87.9% | about 50% | 49.9* % | 111.4% | 103.6% | 100.6% | No influence on cell proliferation
